Reference: patent publication US12377112B2, “Methods of treating neurocognitive disorders, chronic pain and reducing inflammation” (priority 2019, dated 2025)
Marks after values point to notes of the source that are not given here.

How the values were obtained:
Wistar-Kyoto (WKY) rats = assay: Sleep-wake amounts (EEG/EMG) in Wistar-Kyoto rats; format: in vivo, rat; conditions: 5 mg/kg and 10 mg/kg s.c.
Text: Since WKY rats show decreased sensitivity to conventional monoamine-based antidepressant treatment, they are used as a model of TRD.
Male (WKY) rats (200-250 g) were implanted with electroencephalography (EEG) and electromyography (EMG) electrodes and telemetry transmitters under general anaesthesia (2-5% isoflurane in Oxygen). A telemetry transmitter (HD-502, Data Sciences International) was placed in the peritoneal cavity, and the wires of the transmitter were passed through the muscle wall and then sub-dermally to the scalp to act as EEG/EMG electrodes. Two bore holes were made in the skull (Fronto-parietal coordinates; Bregma +2 mm anterior, midline +1.0 mm lateral and Lambda 0 mm, +1.5 mm lateral). The positive EEG electrode was attached to the anterior bore hole and the negative EEG electrode to the posterior bore hole. Both electrodes were secured in place using a suitable adhesive agent (Cyanoacrylate gel, RS components). […]
Animals were maintained on a 12/12 hour light dark cycle. On study days, the animals were placed in recording boxes and EEG/EMG, locomotor activity, as well as body temperature were recorded for 0.5 h before and 24 h after each dosing. […]
The subsequent EEG/EMG recordings were automatically scored as wake, non-REM (NREM) sleep, or REM sleep in 10 second epochs using SleepSign (Kissei Comtec, Japan). […]

male C57BL/6 mice = assay: Chronic constriction injury (CCI) model of neuropathic pain, von Frey paw withdrawal threshold; format: in vivo, mouse
Procedure: To determine whether psilocybin may alleviate chronic neuropathic pain, various doses of psilocybin were tested in a mouse model of chronic constriction injury (CCI).
Male C57BL/6 mice (age 6-7 weeks, source: Charles River UK) were housed in standard caging in groups of 2-4, with free access to food (5CR4, Purina) and water (except during placement in the test box) on a 12/12 light/dark cycle.
All animals underwent behavioral testing of mechanical allodynia on three consecutive days (Day −2, Day−1 and Day 0) prior to surgery in order to determine the baseline withdrawal thresholds. Briefly, Static mechanical (tactile) allodynia was assessed by measurement of withdrawal threshold using calibrated (force; g) von-Frey monofilaments (Touch-Test Sensory Evaluator; Scientific Marketing Associates) applied to the plantar surface of the hind-paw. The animals were placed in individual Perspex boxes on a raised metal mesh for 30-40 minutes before the test. A series of graduated von Frey hairs (0.07, 0.16, 0.4, 0.6 and 1 g) was applied in sequence with a protocol of 1 second on 1 second off, repeated 10 times. Each hair was applied perpendicularly to the center of the ventral surface of the paw until it slightly bends. The force applied to the hind-paw of the animal to induce 5 responses out of 10 trials was recorded as paw withdrawal threshold (PWT). Three baseline paw withdrawal thresholds were taken on ipsilateral paws. The mean of the last two readings used as the baseline withdrawal threshold.
Subsequently, surgery was performed under anesthesia (Isoflurane mixed with oxygen, 3:1, 2 L/min) to tie three loose ligatures of prolene (7-0, Ethicon) around the sciatic nerve, with 1 mm spacing between each. The nerve was then returned below the muscle layer and the wound closed using absorbable sutures (Vicryl).
Following recovery from surgery, Von Frey assessment of mechanical allodynia was taken on days 19 and 22. Animals were then ranked and randomized (based on a Latin square design) to treatment groups according to the percentage change (compared to pre-surgery baseline) of the mean mechanical withdrawal threshold observed on days 19 and 22. Only those animals showing a PWT percentage change of >50% from pre-surgery baseline were included in the study.
On day 23, the animals were dosed with psilocybin (1, 3 or 10 mg/kg by intraperitoneal injection) or vehicle (10 mL/kg by intraperitoneal injection). Nerve pain medication Pregabalin (15 mg/kg administered orally) was also used as a positive control. Allodynia was then assessed at 0.5, 4 and 24 hours post-treatment timepoint (PTT).

[1] = test system: rat primary hippocampal culture, Aβ 1-40 intoxication; assay: Fibrillated amyloid-β damage on cultures of hippocampal neurons (MTT viability); format: cell-based
Text: Amyloid-β toxicity is a hallmark of Alzheimer's disease, and is also frequently seen in multiple sclerosis lesions. In this study, the neuroprotective effect of psilocin on amyloid-β-induced neuronal death in rat primary hippocampal culture was investigated.
Female Wistar rats of 19 days gestation were killed by cervical dislocation and foetuses were removed from the uterus. Their brains were placed in ice-cold medium of Leibovitz (L15, Gibco, Fisher bioblock, France). Hippocampi were carefully removed, and the hippocampal neurons were dissociated by trypsinization for 30 min at 37° C. (trypsin-EDTA, Gibco) in presence of 0.1 mg/ml DNAse I (Roche, France). […] Viable cells were counted in a Neubauer cytometer using the trypan blue exclusion test (Sigma). […]
Psilocin was added to cells 10 minutes or 48 hours before amyloid-β intoxication. Neuronal viability was assessed 48 hours after amyloid-β intoxication. […]
Two days after Aβ exposure (day 11), cell viability was assessed by a measurement of cell metabolic activity using the CellTiter96® non-radioactive kit (MTT, Promega, Charbonnières, France). […] Solubilization solution was added and visible wavelength absorbance data was collected 4 hours later using a 96-well plate reader at 570 nm and 630 nm for non-specific background (Multiskan EX, Thermo Fisher).

[2] = test system: human iPSC-derived neurons; assay: Neurite outgrowth in human iPSC-derived neurons; format: cell-based
Procedure: The neurotrophic effect of psilocin was tested on human iPSC-derived neuronal cultures. Two parameters were evaluated: the average number of neurites per neuron, and the average total neurite length per neuron. Briefly, neurons establish physical connections between them in order to create neuronal networks.
Cryopreserved iCell neurons were thawed and plated according to Cellular Dynamics International instructions. The pharmacological treatments were carried out 2 hours after the cell plating. The cells were maintained in a humidified incubator at 37° C. in 5% CO2-95% air atmosphere.
Stock solutions of psilocin were prepared in 100% DMSO at 1000 times the final concentration in the culture media (1000× concentration).
For each culture, each condition was performed in sextuplet.
Each plate contained two types of other experimental conditions: the control condition treated with vehicle and the culture treated with Brain-derived neutrophic factor (BDNF).
Plate 1 and 2: Cells were treated with psilocin at 3 different concentrations: 0.03 μM, 0.1 μM, 0.3 μM. The stock solution was prepared fresh in 100% DMSO at 10 mM. BDNF was used in parallel.
Ten days after plating, cultures were fixed with paraformaldehyde in PBS (phosphate buffered saline) (4%, Sigma). Then, cells were successively permeabilized, saturated with PBS (containing 3% of BSA) and incubated for 1 h with anti-beta III tubulin antibody (Sigma) at 1/10 000 in PBS containing 0.5% of BSA (bovine serum albumin). Cells were first washed and were then incubated 1 h with goat anti-mouse antibody coupled with AF488 (Invitrogen A11001) diluted at 1/1000 in PBS containing 0.5% of BSA. Finally, nuclei are stained with DAPI 1 mg/ml at 1/1000 in PBS containing 0.5% of BSA. After rinsing them with PBS, the plate was filmed and neurite networks were examined and analyzed using High-Content Screening (CellInsight, Thermo Scientific).
The evaluation of neurite outgrowth was performed using the average number of neurites per neuron and the average of total neurite length per neuron, using Sholl method (Bird & Cuntz, 2019). (See FIG. 59A, FIG. 59B, FIG. 60A, FIG. 60B).

[3] = test system: rat embryo mesencephalic cells, 6-OHDA; assay: 6-OHDA damage on mesencephalic neuronal cultures (TH positive neurons); format: cell-based; conditions: 1 μM, 3 μM and 10 μM, one hour prior to 15 μM 6-OHDA
Procedure: The neuroprotective effect of psilocin against 6-OHDA-mediated injury on mesencephalic neuronal cultures was investigated.
A primary culture of rat embryo mesencephalic cells was plated on a 96-well plate. The cells were maintained at 37° C. in 5% CO2. Half of the medium was changed on day 2.
On day 6, the culture medium was removed and replaced by media containing psilocin (0.03 μM, 0.1 μM, 0.3 μM, 1 μM, 3 μM, or 10 μM), a negative control (saline vehicle, labelled control in FIG. 10), or a positive control (brain-derived neurotrophic factor (BDNF) and glial cell-derived neurotrophic factor (GDNF))). After one hour, 15 μM 6-OHDA was added for 48 hours.
On day 8, immunodetection was used to determine the number of tyrosine hydroxylase positive neurons.
Neuronal viability was assessed 48 hours after 6-OHDA intoxication and measured by the number of TH (tyrosine hydroxylase) positive neurons. The compound 6-OHDA kills specifically dopaminergic neurons, mimicking the cellular pathophysiology of Parkinson's disease. […] The result for each well was expressed as a percentage by setting the density of tyrosine hydroxylase positive cells under control conditions to 100%. The result for each condition was reported as mean (±S.E.M.) from 4 independent cultures.

CNC1(c2ccccc2Cl)CCCCC1=O (centres unmarked) [ketamine]
Amount of REM sleep (Wistar-Kyoto (WKY) rats): decreased the amount of REM sleep in a dose-dependent manner

CC(C)C[C@H](CN)CC(=O)O [pregabalin, reference compound]
Force-induced paw withdrawal, mean (male C57BL/6 mice; 15 mg/kg PO group, D19-22 Neuropathic baseline (before dosing)): 0.13 g | Force-induced paw withdrawal, mean (male C57BL/6 mice; 15 mg/kg PO group, D-2 D-1 Baseline (before surgery and dosing)): 0.67 g | Force-induced paw withdrawal, mean (male C57BL/6 mice; 15 mg/kg PO, D23 0.5 hours PTT): 0.19 g | Force-induced paw withdrawal, mean (male C57BL/6 mice; 15 mg/kg PO, D23 4 hours PTT): 0.46* g | Force-induced paw withdrawal, mean (male C57BL/6 mice; 15 mg/kg PO, D24 24 hours PTT): 0.16 g | Paw withdrawal threshold vs neuropathic baseline (male C57BL/6 mice; 15 mg/kg orally, 4 hours): significant increase

CN(C)CCc1c[nH]c2cccc(O)c12 [psilocin]
Neuronal viability after amyloid-β ([1]; 10 μM, applied 10 minutes prior to amyloid-β): increased neuronal viability | Neuronal viability after amyloid-β ([1]; 0.3, 1, 3 and 10 μM, applied 48 hours prior to amyloid-β): increased neuronal viability | Average lengths of neurites ([2]; 0.03 μM, treated at Day 0): significant increases | Average length of neurites ([2]; 0.03 μM, treated at Day 3): increase | Number of neurites per neurons ([2]; 0.03 μM, treated at Day 3): increase | Length of neurites ([2]; 0.1 μM): increased | Neuronal viability (TH positive neurons) after 6-OHDA [3]: increased neuronal viability
